# From patent publication US7964406B2, “Means and methods for producing a stabilized cell of interest” (Academisch Medisch Centrum Bij De Universiteit Van Amsterdam, priority 2004, dated 2011)
# Experiments:
# human tonsillar B cells = assay: 4HT-dependent growth of CA-STAT5b-ER transduced tonsillar B cells; type: cell-based; conditions: 1 μM 4HT, CD40L, IL-2 and IL-4
# Protocol: FIG. 19. Characteristics of B cells transduced with CA-STAT5b-ER. (A) Tonsil B cells were cultured in CD40L, IL-2 and IL-4 and transduced with CA-STAT5b-ER-IRES-ΔNGFR (circles) or with control-IRES-ΔNGFR (squares). Both cultures were split, one part was cultured without (open symbols) and another with 1 μM 4HT (closed symbols). At the indicated time points after transduction percentages of transduced cells were determined by flow cytometric analysis after staining with an APC-conjugated antibody against NGFR. Absolute cell number counts were determined based on the percentages of ΔNGFR^+ cells. The experiment shown is representative for 5 independent experiments performed. (B) CA-STAT5b-ER-IRES-ΔNGFR transduced B cells 30 days after transduction were cultured for 7 days in the absence of 4HT. Equal numbers of cells were cultured then either in the presence (closed squares) or absence of 4HT (open squares) and absolute cell numbers were determined. Shown is a representative experiment out of 3. (C) Flow cytometric analysis of a representative culture of CA-STAT5b-ER-IRES-ΔNGFR transduced B cells cultured in CD40L, IL-2 and IL-4 in the presence of 4HT. Isotype control stainings are shown as thin histograms.
# We then transduced human tonsillar B cells with the CA-STAT5b-ER-IRES-ΔNGFR construct and examined the effect of 4HT on the proliferative capacity of these B cells. […]
# BCL-6 = BCL-6 expression in STAT5b-ER+ tonsil B cells after 4HT, RT-PCR and Western blot; type: cell-based, human; conditions: 4HT added back for 8 hr after 10 days without
# Protocol: FIG. 21. Induction of BCL-6 expression by STAT5. (A) RT-PCR analysis of BCL-6 and HPRT in B cells transduced with CA-STAT5b-ER cultured in CD40L, IL-2 and IL-4 with 4HT. After incubation of the cells without 4HT for 10 days, 4HT was added back for 8 hr in the presence or absence of cyclohexamide (CH). This experiment was repeated 3 times with similar results. (B) Expression of BCL-6 protein in CA-STAT5b-ER-transduced B cells cultured in the presence of 4HT constantly or absence of 4HT for 12 days as determined by Western blot analysis using an anti-BCL-6 antibody. An antibody against actin was used as a protein loading control. Similar results were obtained in 3 independent experiments. (C) Dual luciferase reporter assay. Part of the promoter region of the BCL-6 gene (position −657/+471 bp) was linked to the firefly (P. pyralis) luciferase coding sequence and subcloned into the pGL3 vector. One potential STAT5 binding site in this promoter region (−548/−566 bp) was mutated from […] to […], and two different clones (BCL-6* and BCL-6**) were subcloned into the pGL3-firefly luciferase backbone. These pGL3 constructs were cotransfected with LZRS-CA-STAT5b and the Renilla luciferase containing vector into 293T cells. Both luciferase activities were measured sequentially from a single sample and relative luciferase units were calculated and corrected for the Renilla luciferase activity. […]
substance,measurement,setting,value
4-Hydroxy-Tamoxifen [4HT],growth selection of CA-STAT5b-ER expressing cells (ΔNGFR+),human tonsillar B cells,only occurred in the presence of 4HT
same,expression of the BCL-6 transcript with 4HT versus without,BCL-6,substantially higher
